# Several values for one entry are separate records, joined by “and”; a condition that tells them apart may be missing. Equal values may be shown once.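 Dose response: 5 concentrations. Exposure: 48 h. Format: 96-well plates. Endpoint: linear interpolation; highest concentration if not reached. Abbreviation: GI50, concentration required for 50% inhibition of growth. TGI is the concentration that stops growth completely.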
# Legend:
# Test in all cases: NCI anticancer screen, dose series, 48 h
# SK-MEL-5 melanoma = tested on: SK-MEL-5 melanoma
# NCI-H23 lung = tested on: NCI-H23 lung
# HT29 colon = tested on: HT29 colon
# HS 578T breast = tested on: HS 578T breast
# SF-539 CNS = tested on: SF-539 CNS
# MOLT-4 leukemia = tested on: MOLT-4 leukemia
# 786-0 renal = tested on: 786-0 renal
# OVCAR-4 ovarian = tested on: OVCAR-4 ovarian
# MALME-3M melanoma = tested on: MALME-3M melanoma
# ACHN renal = tested on: ACHN renal
Compound,GI50 (SK-MEL-5 melanoma),TGI (SK-MEL-5 melanoma) [µM],GI50 (NCI-H23 lung),TGI (NCI-H23 lung),GI50 (HT29 colon),TGI (HT29 colon) [µM],GI50 (HS 578T breast) [µM],TGI (HS 578T breast) [µM],GI50 (SF-539 CNS),TGI (SF-539 CNS),GI50 (MOLT-4 leukemia),TGI (MOLT-4 leukemia) [µM],GI50 (786-0 renal),TGI (786-0 renal),GI50 (OVCAR-4 ovarian),TGI (OVCAR-4 ovarian),TGI (MALME-3M melanoma) [µM],TGI (ACHN renal),GI50 (MALME-3M melanoma) [µM],GI50 (ACHN renal) [µM]
O=C(CC1(O)C(=O)Nc2ccc(Cl)cc21)c1ccc(C(=O)NCC2CCC3(CC2)OOC2(CCCCC2)OO3)cc1 (stereo unspecified),1.75 µM,3.4,1.72 µM,21.3 µM,3.19 µM,11.2,3.44,> 28.2,1.63 µM,3.16 µM,2.05 µM,5.09,0.535 µM,1.86 µM,2.54 µM,18.3 µM,–,–,–,–
N#Cc1c(N)oc2cc3c(C#N)c(N)oc3cc12,–,> 100,–,> 100 µM,–,> 100,–,–,–,> 100 µM,–,> 100,–,> 100 µM,–,> 100 µM,> 100,> 100 µM,–,–
O=C1N(c2ccc(Cl)cc2)C(=O)C2(SC=NN2Cc2ccccc2)N1c1ccc(Cl)cc1 (stereo unspecified),–,> 100,–,> 100 µM,–,> 100,–,–,–,> 100 µM,–,> 100,–,> 100 µM,–,> 100 µM,> 100,> 100 µM,–,–
CC(C)(C)n1cc(-c2ccnc(NCCCNS(=O)(=O)c3cccc4ccccc34)c2)c(-c2cccc(O)c2)n1,1.51 µM,2.85,1.78 µM,3.84 µM,–,–,1.89,4.8,1.83 µM,3.52 µM,2 µM,5.5,2.09 µM,5.12 µM,1.92 µM,4.75 µM,3.18,7.25 µM,1.51,2.7
COc1cc2c3c(c4cc(OC)c(OC)cc4c2cc1OC)CN1CCC[C@H]1C3,0.0607 µM and < 0.01 µM,–,0.0406 µM and < 0.0123 µM,0.653 µM and 3.4 µM,0.034 µM and < 0.01 µM,1.14,–,> 29.2,0.0564 µM and 0.0157 µM,2.94 µM and 1.12 µM,0.0382 µM and < 0.01 µM,> 34.9,0.0417 µM and 0.0103 µM,> 10 µM and 2.46 µM,0.0419 µM and < 0.01 µM,1.28 µM and 0.392 µM,–,2.37 µM and 0.393 µM,–,–
CC(=O)OC1(C(C)=O)CC2(c3ccccc3)OC1(c1ccccc1)c1ccccc12 (stereo unspecified),–,8.53,–,> 100 µM,–,> 100,–,–,–,> 100 µM,–,40.1,–,> 100 µM,–,–,> 100,> 100 µM,–,–
N#Cc1sc2nc3c(c(-c4ccccc4)c2c1N)CCCC3,–,–,–,> 100 µM,–,> 100,–,–,–,56.2 µM,–,> 100,–,> 100 µM,–,> 100 µM,> 100,> 100 µM,–,–
COc1cccc(NC(=O)/C(CS(=O)(=O)CCC(C(C)=O)C(C)=O)=N\NC(C)(C)C)c1,–,> 100,–,> 100 µM,–,> 100,–,–,–,> 100 µM,–,> 100,–,> 100 µM,–,> 100 µM,> 100,> 100 µM,–,–
COc1cc([C@H]2OC[C@@H]3C(c4cc(OC)c5c(c4)OCO5)OC[C@H]23)cc(OC)c1OC (stereo partly specified),–,44.9,–,> 100 µM,–,> 100,–,> 100,–,> 100 µM,–,> 100,–,> 100 µM,–,> 100 µM,–,> 100 µM,–,–
